Data as given in patent US20100234454A1 (priority 2006, published 2010).

Key:
rats [1] = assay: Flinches in rats after intraplantar injection of capsaicin; format: in vivo, rat
rats [2] = settings: rat, in vivo

Question: With CC(C)(C)c1ccc(NC(=O)N2CCN(c3ncccc3Cl)CC2)cc1 [BCTC, N-(4-Tertiarybutylphenyl)-4-(3-cholorphyridin-2-yl)tetrahydropyrazine-1(2H)-carbox-amide] as the molecule, how does the “number of flinches (mean) after intraplantar capsaicin following BCTC conditioning” value (rats [1]; 40 mg/kg BCTC s.c. one hour before capsaicin, 4 minutes, p<0.05, n=6) read?
Answer: 4.2

Question: What about the “reduction of induced pain effect” value (rats [2]) of the same molecule?
Answer: 79%

Question: What about the “dose needed to decrease half of the number of flinches induced by the venom” value (rats [2]; sc) of the same molecule?
Answer: 10 to 40 mg/kg

Question: What about the “dose of maximal analgesic effect” value (rats [2]; sc) of the same molecule?
Answer: 40 mg/kg

Question: How did the “number of flinches (mean) after intraplantar capsaicin alone” value (rats [1]; 10 μg capsaicin intraplantar, 4 minutes observation, n=6) turn out when COc1cc(CNC(=O)CCCC/C=C/C(C)C)ccc1O [capsaicin] was run?
Answer: 76.0
